Values quoted from earlier work, collected in patent publication US20190000834A1, “INJECTABLE COMPOSITION AND A METHOD OF TREATMENT OF THE PHYSICAL ADDICTION” (VERITA RESEARCH PTE LTD, priority 2015, published 2019).

How the values were obtained:
[1] = tested on: methamphetamine self-administering animals
[2] = tested on: amphetamine dependent patients; details: naltrexone 50 mg
[3] = tested on: amphetamine dependence; details: Naltrexone 50 mg along with CBT, 12 weeks
[4] = tested on: amphetamine dependence; details: outpatients

## O=C1CC[C@@]2(O)[C@H]3Cc4ccc(O)c5c4[C@@]2(CCN3CC2CC2)[C@H]1O5 [Naltrexone, (4R,4aS,7aR,12bS)-3-(cyclopropylmethyl)-4a,9-dihydroxy-2,4,5,6,7a,13-hexahydro-1H-4,12-methanobenzofuro [3,2-e] isoquinoline-7-one]
[1]
  cue- and drug-induced methamphetamine seeking: attenuated cue—but not drug-induced methamphetamine
[2]
  craving: significantly blocked
  subjective effects produced by dexamphetamine: significantly attenuated
[3]
  tolerability: well tolerated
[4]
  amphetamine use: effective in reducing amphetamine use
